Laboratory results from ChEMBL document CHEMBL1149442, “Dual binding mode of a novel series of DHODH inhibitors” (J Med Chem, 2006).
pIC50: −log10 of the molar value.

Biological target: Dihydroorotate dehydrogenase (quinone), mitochondrial (Homo sapiens, UniProt Q02127)
Test: Inhibitory activity against human DHODH

Chain of Dihydroorotate dehydrogenase (quinone), mitochondrial (Q02127 whole entry): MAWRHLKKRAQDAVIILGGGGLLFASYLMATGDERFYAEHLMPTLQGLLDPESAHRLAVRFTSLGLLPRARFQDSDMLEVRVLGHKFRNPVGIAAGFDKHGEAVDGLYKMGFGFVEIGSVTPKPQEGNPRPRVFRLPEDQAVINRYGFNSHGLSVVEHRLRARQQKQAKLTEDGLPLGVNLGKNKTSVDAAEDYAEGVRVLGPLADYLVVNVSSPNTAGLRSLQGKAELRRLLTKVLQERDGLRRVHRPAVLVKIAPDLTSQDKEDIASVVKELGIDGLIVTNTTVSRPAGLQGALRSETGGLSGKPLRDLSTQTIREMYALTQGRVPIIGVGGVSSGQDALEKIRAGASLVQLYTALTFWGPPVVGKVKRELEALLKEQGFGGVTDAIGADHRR

Compound `O=C(Nc1c(F)cc(-c2cccc(OC(F)(F)F)c2)cc1F)c1ccsc1C(=O)O` has a pIC50 of 8.70.
